Where a SMILES comes first, the peptide text is derived from it. Bridges are numbered along the chain shown (N, C = ends). [ ]: non-standard residue; d: D form. pGlu = O=C1CC[C@@H](C(=O)O)N1

The species entered for data set [1] is Rattus norvegicus. The experiment in a line: Binding affinity to neurotensin receptor in rat mast cells at 1 ng to 10 ug after 15 mins relative to neurotensin. Type of data set: cell-based.
The test system of data set [2] is Rattus norvegicus. Nature of the data set: Induction of hypothermia in cold-exposed Sprague-Dawley rat compound administered intracisternally measured 60 mins post dose relative to neurotensin. In kind it is functional.
Data set [3] in a line: Retention time of the compound in 0.01 M NH4OAc buffer at pH 4.5 by HPLC analysis. In kind it is physicochemical.

`CC[C@H](C)[C@H](NC(=O)[C@H](Cc1ccc(O)cc1)NC(=O)[C@@H]1CCCN1C(=O)[C@@H](N)CCCN=C(N)N)C(=O)N[C@@H](CC(C)C)C(=O)O`: the Ratio came out at 76 in data set [1] and 20 in data set [2].

`CC[C@H](C)[C@H](NC(=O)[C@@H](Cc1ccccc1)NC(=O)[C@@H]1CCCN1C(=O)[C@H](CCCN=C(N)N)NC(=O)[C@H](CCCN=C(N)N)NC(=O)[C@@H]1CCCN1C(=O)[C@H](CCCCN)NC(=O)[C@H](CC(N)=O)NC(=O)[C@H](CCC(=O)O)NC(=O)[C@H](Cc1ccc(O)cc1)NC(=O)[C@H](CC(C)C)NC(=O)[C@@H]1CCC(=O)N1)C(=O)N[C@@H](CC(C)C)C(=O)O` returned a Retention_time in data set [3] of 5.3 min. For the same compound, the figures for the Ratio in data set [1] and in data set [2] were 0.64 and 1000, respectively.

In data set [3], `CC[C@H](C)[C@H](NC(=O)[C@H](Cc1ccc(O)cc1)NC(=O)[C@@H]1CCCN1C(=O)[C@@H](N)CCCNC(=N)N)C(=O)N[C@@H](CC(C)C)C(=O)O` displayed a Retention_time of 10.4 min.

`CC[C@H](C)[C@@H]1NC(=O)[C@H](Cc2ccc(O)cc2)NC(=O)[C@@H]2CCCN2C(=O)[C@H](CCCNC(=N)N)NC(=O)[C@H](CCCNC(=N)N)NC(=O)[C@@H]2CCCN2C(=O)[C@H](CCCCN)NC(=O)[C@H](CC(N)=O)NC(=O)[C@H](CCC(=O)O)NC(=O)[C@H](Cc2ccc(O)cc2)NC(=O)[C@@H](NC(=O)[C@@H]2CCC(=O)N2)CSSC[C@@H](C(=O)O)NC1=O` ([pGlu]CYENKPRRPYIC-OH; disulfide 2-13) had a Retention_time in data set [3] of 5.3 min. In addition, the Ratio in data set [1] worked out at 3.4; in data set [2] it was 100.

`CC[C@H](C)[C@H](NC(=O)[C@@H](CC(C)C)NC(=O)[C@@H]1CCCN1C(=O)[C@H](CCCNC(=N)N)NC(=O)[C@H](CCCNC(=N)N)NC(=O)[C@@H]1CCCN1C(=O)[C@H](CCCCN)NC(=O)[C@H](CC(N)=O)NC(=O)[C@H](CCC(=O)O)NC(=O)[C@H](Cc1ccc(O)cc1)NC(=O)[C@H](CC(C)C)NC(=O)[C@@H]1CCC(=O)N1)C(=O)N[C@@H](CC(C)C)C(=O)O` had a Retention_time in data set [3] of 5.2 min. Further, the Ratio in data set [2] turned out to be 30.

In turn, `CC[C@H](C)[C@H](NC(=O)[C@@H](CCCCN)NC(=O)[C@@H]1CCCN1C(=O)[C@H](CCCNC(=N)N)NC(=O)[C@H](CCCNC(=N)N)NC(=O)[C@@H]1CCCN1C(=O)[C@H](CCCCN)NC(=O)[C@H](CC(N)=O)NC(=O)[C@H](CCC(=O)O)NC(=O)[C@H](Cc1ccc(O)cc1)NC(=O)[C@H](CC(C)C)NC(=O)[C@@H]1CCC(=O)N1)C(=O)N[C@@H](CC(C)C)C(=O)O` displayed a Retention_time in data set [3] of 6.4 min. Besides, the Ratio was 3.4 in data set [1] and less than 1 in data set [2].

Turning to `CC[C@H](C)[C@H](NC(=O)[C@H](Cc1ccc(O)cc1)NC(=O)[C@@H]1CCCN1C(=O)[C@H](CCCNC(=N)N)NC(=O)[C@@H](N)CCCNC(=N)N)C(=O)N[C@@H](CC(C)C)C(=O)O` [listing 1 of 2 here], the Ratio in data set [2] is on record as 25.

For `CC[C@H](C)[C@H](NC(=O)[C@H](Cc1ccccc1)NC(=O)[C@@H]1CCCN1C(=O)[C@H](CCCN=C(N)N)NC(=O)[C@H](CCCN=C(N)N)NC(=O)[C@@H]1CCCN1C(=O)[C@H](CCCCN)NC(=O)[C@H](CC(N)=O)NC(=O)[C@H](CCC(=O)O)NC(=O)[C@H](Cc1ccc(O)cc1)NC(=O)[C@H](CC(C)C)NC(=O)[C@@H]1CCC(=O)N1)C(=O)N[C@@H](CC(C)C)C(=O)O`, in data set [3], the Retention_time was 9.7 min. The Ratio in data set [1] and in data set [2] was 100 each time.

With `CC[C@@H](C)[C@H](NC(=O)[C@H](Cc1ccc(O)cc1)NC(=O)[C@@H]1CCCN1C(=O)[C@H](CCCNC(=N)N)NC(=O)[C@@H](N)CCCNC(=N)N)C(=O)N[C@@H](CC(C)C)C(=O)O`, the Ratio in data set [1] came out at 67.

In data set [3], `CC[C@H](C)[C@H](NC(=O)[C@H](Cc1ccc(O)cc1)NC(=O)[C@@H]1CCCN1C(=O)[C@H](CCCNC(=N)N)NC(=O)[C@H](CCCNC(=N)N)NC(=O)[C@@H]1CCCN1C(=O)[C@H](CCCCN)NC(=O)[C@H](CC(N)=O)NC(=O)[C@H](CCC(=O)O)NC(=O)[C@H](Cc1ccccc1)NC(=O)[C@H](CC(C)C)NC(=O)[C@@H]1CCC(=O)N1)C(=O)N[C@@H](CC(C)C)C(=O)O` registered a Retention_time of 4.9 min. In addition, the Ratio in data set [1] was found to be 102; in data set [2], 100.

For `CC[C@H](C)[C@H](NC(=O)[C@H](Cc1ccc(O)cc1)NC(=O)[C@@H]1CCCN1C(=O)[C@H](CCCNC(=N)N)NC(=O)[C@@H](N)CCCNC(=N)N)C(=O)N[C@@H](CC(C)C)C(=O)O` [listing 2 of 2 here], in data set [3], the Retention_time was determined as 8.2 min.

For the origin of these results see ChEMBL document CHEMBL3272216 (J Med Chem, 1977).
